According to patent US12599136B2, “Substituted isophthalic acid diamides and their use as herbicides” (Bayer Aktiengesellschaft, priority 2020, dated 2026):

Columns and labels:
Format in all cases: in vivo
[1] = system: Amaranthus retroflexus; test: Pre-emergence herbicidal action against AMARE; details: visual score after 3 weeks vs untreated controls
Procedure, shortened: (§1)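 Greenhouse pots of sandy loam held seeds covered with soil, onto which the compound was applied before emergence. An aqueous suspension or emulsion of WP or EC was used at 600 to 800 l/ha with 0.2% wetting agent. Percent damage was judged visually at 3 weeks.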

[2] = system: Echinochloa crus-galli; test: Pre-emergence herbicidal action against ECHCG; details: 320 g/ha; visual score after 3 weeks vs untreated controls
Procedure, shortened: as §1

[3] = system: Veronica persica; test: Pre-emergence herbicidal action against VERPE
Procedure, shortened: as §1

[4] = system: Matricaria inodora; test: Post-emergence herbicidal action against MATIN; details: visual assessment about 3 weeks after treatment
Procedure, shortened: (§2)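 Foliar application at one-leaf stage of formulated test compounds, aqueous spray at 600–800 l/ha with 0.2% wetting agent. Greenhouse, optimal conditions, ~3 weeks; damage scored visually in % relative to untreated plants.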

[5] = system: Amaranthus retroflexus; test: Post-emergence herbicidal action against AMARE; details: visual assessment about 3 weeks after treatment
Procedure, shortened: as §2

[6] = system: Stellaria media; test: Pre-emergence herbicidal action against STEME
Procedure, shortened: as §1

[7] = system: Cyperus esculentus; test: Post-emergence herbicidal action against CYPES; details: 80 g/ha, visual assessment about 3 weeks after treatment
Experimental: (§3) Seeds of monocotyledonous and dicotyledonous weed and crop plants are laid out in sandy loam soil in wood-fiber pots, covered with soil and cultivated in a greenhouse under good growth conditions. 2 to 3 weeks after sowing, the test plants are treated at the one-leaf stage. The compounds of the invention, formulated in the form of wettable powders (WP) or as emulsion concentrates (EC), are then sprayed onto the green parts of the plants in the form of an aqueous suspension or emulsion at a water application rate equivalent to 600 to 800 l/ha, with addition of 0.2% wetting agent. After the test plants have been left to stand in the greenhouse under optimal growth conditions for about 3 weeks, the action of the preparations is assessed visually in comparison to untreated controls (herbicidal action in percent (%): 100% activity=the plants have died, 0% activity=like control plants). […] The tables below illustrate, in an illustrative manner, the post-emergence herbicidal action of the compounds of the invention, the herbicidal activity being stated in percent.

[8] = system: Viola tricolor; test: Post-emergence herbicidal action against VIOTR
Procedure, shortened: as §2

[9] = system: Hordeum murinum; test: Pre-emergence herbicidal action against HORMU; details: 320 g/ha; visual score after 3 weeks vs untreated controls
Procedure, shortened: as §1

[10] = system: Alopecurus myosuroides; test: Post-emergence herbicidal action against ALOMY
Procedure, shortened: as §2

[11] = system: Abutilon theophrasti; test: Pre-emergence herbicidal action against ABUTH; details: visual score after 3 weeks vs untreated controls
Procedure, shortened: as §1

[12] = system: Cyperus esculentus; test: Pre-emergence herbicidal action against CYPES; details: visual score after 3 weeks vs untreated controls
Procedure, shortened: as §1

[13] = system: Setaria viridis; test: Pre-emergence herbicidal action against SETVI
Procedure, shortened: as §1

[14] = system: Polygonum convolvulus; test: Pre-emergence herbicidal action against POLCO
Procedure, shortened: as §1

[15] = system: Veronica persica; test: Post-emergence herbicidal action against VERPE; details: visual assessment about 3 weeks after treatment
Procedure, shortened: as §2

[16] = system: Alopecurus myosuroides; test: Pre-emergence herbicidal action against ALOMY; details: visual score after 3 weeks vs untreated controls
Procedure, shortened: as §1

[17] = system: Matricaria inodora; test: Pre-emergence herbicidal action against MATIN; details: visual score after 3 weeks vs untreated controls
Procedure, shortened: as §1

[18] = system: Pharbitis purpurea; test: Post-emergence herbicidal action against PHBPU; details: visual assessment about 3 weeks after treatment
Procedure, shortened: as §2

[19] = system: Abutilon theophrasti; test: Post-emergence herbicidal action against ABUTH
Procedure, shortened: as §2

[20] = system: Avena fatua; test: Pre-emergence herbicidal action against AVEFA; details: visual score after 3 weeks vs untreated controls
Procedure, shortened: as §1

[21] = system: Polygonum convolvulus; test: Post-emergence herbicidal action against POLCO; details: 80 g/ha, visual assessment about 3 weeks after treatment
Procedure, shortened: as §2

[22] = system: Setaria viridis; test: Post-emergence herbicidal action against SETVI; details: visual assessment about 3 weeks after treatment
Procedure, shortened: as §2

[23] = system: Viola tricolor; test: Pre-emergence herbicidal action against VIOTR; details: 320 g/ha
Procedure, shortened: as §1

[24] = system: Stellaria media; test: Post-emergence herbicidal action against STEME; details: visual assessment about 3 weeks after treatment
Procedure, shortened: as §2

[25] = system: Lolium rigidum; test: Pre-emergence herbicidal action against LOLRI; details: 320 g/ha
Procedure, shortened: as §1

[26] = system: Lolium rigidum; test: Post-emergence herbicidal action against LOLRI; details: 80 g/ha
Experimental: as §3

[27] = system: Echinochloa crus-galli; test: Post-emergence herbicidal action against ECHCG; details: visual assessment about 3 weeks after treatment
Procedure, shortened: as §2

[28] = system: Avena fatua; test: Post-emergence herbicidal action against AVEFA; details: visual assessment about 3 weeks after treatment
Procedure, shortened: as §2

**Q.** Which “Pre-emergence action against AMARE” value ([1]; 20 g/ha) does the source give for `CCn1nnnc1NC(=O)c1ccc(C(F)(F)F)c(C(=O)N2CCCC2)c1Cl` [Example 2-152] here?
**A.** Its value is 100%.

**Q.** What about the “Pre-emergence action against AMARE” value ([1]; 80 g/ha) of the same compound?
**A.** Its value is 100%.

**Q.** What about the “Pre-emergence action against AMARE” value ([1]; 320 g/ha) of the same compound?
**A.** The value was 100%.

**Q.** And the “Pre-emergence action against ECHCG” value [2]?
**A.** The value was 100%.

**Q.** And the “Pre-emergence action against VERPE” value ([3]; 80 g/ha)?
**A.** The value was 80%.

**Q.** And the “Pre-emergence action against VERPE” value ([3]; 320 g/ha)?
**A.** Its value is 100%.

**Q.** What about the “Post-emergence action against MATIN in %” value ([4]; 5 g/ha) of the same compound?
**A.** The value was 80%.

**Q.** What about the “Post-emergence action against MATIN in %” value ([4]; 20 g/ha) of the same compound?
**A.** The value was 80%.

**Q.** What about the “Post-emergence action against MATIN in %” value ([4]; 80 g/ha) of the same compound?
**A.** The value was 100%.

**Q.** What about the “Post-emergence action against AMARE in %” value ([5]; 5 g/ha) of the same compound?
**A.** The value was 100%.

**Q.** What about the “Post-emergence action against AMARE in %” value ([5]; 20 g/ha) of the same compound?
**A.** Its value is 100%.

**Q.** What about the “Post-emergence action against AMARE in %” value ([5]; 80 g/ha) of the same compound?
**A.** Its value is 100%.

**Q.** What about the “Pre-emergence action against STEME” value ([6]; 20 g/ha) of the same compound?
**A.** The value was 100%.

**Q.** What about the “Pre-emergence action against STEME” value ([6]; 80 g/ha) of the same compound?
**A.** The value was 100%.

**Q.** And the “Pre-emergence action against STEME” value ([6]; 320 g/ha)?
**A.** Its value is 100%.

**Q.** And the “Post-emergence action against CYPES in %” value [7]?
**A.** Its value is 80%.

**Q.** And the “Post-emergence action against VIOTR in %” value ([8]; 20 g/ha)?
**A.** Its value is 100%.

**Q.** What about the “Post-emergence action against VIOTR in %” value ([8]; 80 g/ha) of the same compound?
**A.** The value was 100%.

**Q.** And the “Pre-emergence action against HORMU” value [9]?
**A.** The value was 80%.

**Q.** And the “Post-emergence action against ALOMY” value ([10]; 5 g/ha)?
**A.** Its value is 80%.

**Q.** And the “Post-emergence action against ALOMY” value ([10]; 20 g/ha)?
**A.** Its value is 90%.

**Q.** What about the “Post-emergence action against ALOMY” value ([10]; 80 g/ha) of the same compound?
**A.** Its value is 100%.

**Q.** And the “Pre-emergence action against ABUTH” value ([11]; 20 g/ha)?
**A.** Its value is 100%.

**Q.** And the “Pre-emergence action against ABUTH” value ([11]; 80 g/ha)?
**A.** The value was 100%.

**Q.** And the “Pre-emergence action against ABUTH” value ([11]; Dosage column 320 g/ha (heading prints 3200 g/ha))?
**A.** Its value is 100%.

**Q.** And the “Pre-emergence action against CYPES” value ([12]; 80 g/ha)?
**A.** The value was 80%.

**Q.** What about the “Pre-emergence action against CYPES” value ([12]; 320 g/ha) of the same compound?
**A.** The value was 100%.

**Q.** And the “Pre-emergence action against SETVI” value ([13]; 80 g/ha)?
**A.** Its value is 90%.

**Q.** What about the “Pre-emergence action against SETVI” value ([13]; 320 g/ha) of the same compound?
**A.** Its value is 100%.

**Q.** And the “Pre-emergence action against POLCO” value ([14]; 80 g/ha)?
**A.** The value was 80%.

**Q.** What about the “Pre-emergence action against POLCO” value ([14]; 320 g/ha) of the same compound?
**A.** The value was 90%.

**Q.** And the “Post-emergence action against VERPE in %” value ([15]; 5 g/ha)?
**A.** Its value is 80%.

**Q.** And the “Post-emergence action against VERPE in %” value ([15]; 20 g/ha)?
**A.** The value was 80%.

**Q.** And the “Post-emergence action against VERPE in %” value ([15]; 80 g/ha)?
**A.** Its value is 80%.

**Q.** What about the “Pre-emergence action against ALOMY” value ([16]; 80 g/ha) of the same compound?
**A.** Its value is 90%.

**Q.** What about the “Pre-emergence action against ALOMY” value ([16]; 320 g/ha) of the same compound?
**A.** The value was 100%.

**Q.** What about the “Pre-emergence action against MATIN” value ([17]; 20 g/ha) of the same compound?
**A.** The value was 90%.

**Q.** What about the “Pre-emergence action against MATIN” value ([17]; 80 g/ha) of the same compound?
**A.** Its value is 100%.

**Q.** What about the “Pre-emergence action against MATIN” value ([17]; 320 g/ha) of the same compound?
**A.** Its value is 100%.

**Q.** What about the “Post-emergence action against PHBPU in %” value ([18]; 20 g/ha) of the same compound?
**A.** Its value is 80%.

**Q.** What about the “Post-emergence action against PHBPU in %” value ([18]; 80 g/ha) of the same compound?
**A.** Its value is 80%.

**Q.** And the “Post-emergence action against ABUTH” value ([19]; 5 g/ha)?
**A.** The value was 80%.

**Q.** What about the “Post-emergence action against ABUTH” value ([19]; 20 g/ha) of the same compound?
**A.** Its value is 80%.

**Q.** And the “Post-emergence action against ABUTH” value ([19]; 80 g/ha)?
**A.** The value was 80%.

**Q.** What about the “Pre-emergence action against AVEFA” value ([20]; 80 g/ha) of the same compound?
**A.** Its value is 100%.

**Q.** What about the “Pre-emergence action against AVEFA” value ([20]; 320 g/ha) of the same compound?
**A.** Its value is 100%.

**Q.** And the “Post-emergence action against POLCO in %” value [21]?
**A.** Its value is 80%.

**Q.** And the “Post-emergence action against SETVI in %” value ([22]; 20 g/ha)?
**A.** Its value is 80%.

**Q.** And the “Post-emergence action against SETVI in %” value ([22]; 80 g/ha)?
**A.** The value was 100%.

**Q.** And the “Pre-emergence action against VIOTR” value [23]?
**A.** Its value is 100%.

**Q.** What about the “Post-emergence action against STEME in %” value ([24]; 5 g/ha) of the same compound?
**A.** The value was 80%.

**Q.** And the “Post-emergence action against STEME in %” value ([24]; 20 g/ha)?
**A.** The value was 90%.

**Q.** What about the “Post-emergence action against STEME in %” value ([24]; 80 g/ha) of the same compound?
**A.** Its value is 90%.

**Q.** And the “Pre-emergence action against LOLRI” value [25]?
**A.** Its value is 100%.

**Q.** And the “Post-emergence action against LOLRI in %” value [26]?
**A.** Its value is 90%.

**Q.** What about the “Post-emergence action against ECHCG in %” value ([27]; 20 g/ha) of the same compound?
**A.** Its value is 100%.

**Q.** And the “Post-emergence action against ECHCG in %” value ([27]; 80 g/ha)?
**A.** The value was 100%.

**Q.** What about the “Post-emergence action against AVEFA in %” value ([28]; 5 g/ha) of the same compound?
**A.** The value was 80%.

**Q.** And the “Post-emergence action against AVEFA in %” value ([28]; 20 g/ha)?
**A.** Its value is 100%.

**Q.** What about the “Post-emergence action against AVEFA in %” value ([28]; 80 g/ha) of the same compound?
**A.** The value was 100%.
